# Target: cGMP-specific 3',5'-cyclic phosphodiesterase (Homo sapiens, UniProt O76074)
# Assay: Inhibition Assay: To determine their in vitro action on human PDE 5, the test substances are dissolved in 100% DMSO and serially diluted. Typically, dilution series (1:3) from 200 uM to 0.091 uM are prepared (resulting final concentrations in the test: 4 uM to 0.0018 uM). In each case 2 ul of the diluted substance solutions are placed into the wells of microtitre plates (Isoplate-96/200W; Perkin Elmer). Subsequently, 50 ul of a dilution of the above-described PDE 5 preparation are added. The dilution of the PDE 5 preparation is chosen such that during the later incubation less than 70% of the substrate are converted (typical dilution: 1:100; dilution buffer: 50 mM Tris/hydrochloric acid pH 7.5, 8.3 mM magnesium chloride, 1.7 mM EDTA, 0.2% BSA). The substrate, [8-3H] cyclic guanosine-3',5'-monophosphate (1 uCi/ul; Perkin Elmer) is diluted 1:2000 with assay buffer (50 mM tris/hydrochloric acid pH 7.5, 8.3 mM magnesium chloride, 1.7 mM EDTA) to a concentration of 0.0005 uCi/ul. By addition of 50 ul (0.025 uCi) of the diluted substrate, the enzyme reaction is finally started. The test mixtures are incubated at room temperature for 60 min and the reaction is stopped by adding 25 ul of a suspension of 18 mg/ml yttrium scintillation proximity beads in water (phosphodiesterase beads for SPA assays, RPNQ 0150, Perkin Elmer). […]
compound,measurement,value
CC1(C)C(=O)Nc2nc(-c3nn(Cc4ccccc4F)c4ncc(F)cc34)nc(CNC(=O)C3CC3)c21,IC50,570 nM

# From ChEMBL document CHEMBL5725254, “Substituted annulated triazines and use thereof” (2016)
